Measurements published in US20120309796A1, “BENZOCYCLOHEPTENE ACETIC ACIDS” (priority 2011, published 2012).

Biological target: T1, human CRTH2 (Homo sapiens, UniProt Q9Y5Y4)
T1 sequence (Q9Y5Y4 1-395): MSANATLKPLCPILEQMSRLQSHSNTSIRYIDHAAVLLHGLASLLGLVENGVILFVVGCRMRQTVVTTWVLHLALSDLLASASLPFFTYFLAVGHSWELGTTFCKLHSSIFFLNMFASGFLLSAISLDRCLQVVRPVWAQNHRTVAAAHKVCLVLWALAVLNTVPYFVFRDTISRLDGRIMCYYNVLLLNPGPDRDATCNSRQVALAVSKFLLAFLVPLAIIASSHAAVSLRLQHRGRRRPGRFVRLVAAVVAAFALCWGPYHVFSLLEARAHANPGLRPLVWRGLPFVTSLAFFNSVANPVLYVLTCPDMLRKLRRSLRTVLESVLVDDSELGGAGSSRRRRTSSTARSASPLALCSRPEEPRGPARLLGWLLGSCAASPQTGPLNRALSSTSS
Assay: Calcium Flux Assay Using Fluorometric Imaging Plate Reader (FLIPR)
Format: cell-based
Design: expressed in transfected cells; host or cells: CHO-K1 previously transfected with G-alpha 16
Conditions: CHO-K1 cells with G-alpha 16 and human CRTH2; inhibition of DK-PGD2 ligand-induced Ca2+ flux
Description: CHO-K1 cells previously transfected with G-alpha 16 were subsequently transfected with the human CRTH2 receptor and the neomycin resistance gene. Following selection in 800 μg/mL G418 (geneticin), individual clones were assayed for their receptor expression based on staining with an anti human CRTH2 IgG, followed by assaying for their response to 13,14-dihydro-15-keto Prostaglandin D2 (DK-PDG2) (ligand) in the Ca^2+ Flux assay. Positive clones were then cloned by limiting dilution cloning. The transfected cells were cultured in Ham's F-12 medium supplemented with 10% fetal bovine serum, 2 mM glutamine, 100 U/mL penicillin/100 μg/mL streptomycin, 200 μg/mL hygromycin B, and 800 μg/mL G418 (geneticin). Cells were harvested with trypsin-EDTA (trypsin-ethylenediaminetetraacetic acid) and counted using ViaCount® reagent (from Guava Technologies, Inc. which contains two DNA-binding dyes that enable the reagent user to distinguish between viable and non-viable cells). The cell suspension volume was adjusted to 2.5×10^5 cells/mL with complete growth media. Aliquots of 50 μL were dispensed into BD Falcon™ 384 well black/clear microplates (from BD Biosciences, a division of Becton, Dickinson and Company) and the microplates were placed in a 37° C. CO2 incubator overnight. The following day, the microplates were used in the assay.
Loading Buffer containing dye (from the FLIPR® Calcium 3 Assay Kit from Molecular Devices, a division of MDS Analytical Technologies and MDS Inc.) was prepared by dissolving the contents of one bottle into 200 mL Hank's Balanced Salt Solution containing 20 mM HEPES (4-(2-hydroxyethyl)-1-piperazineethanesulfonic acid) and 2.5 mM probenecid. Growth media was removed from the cell plates and 25 μL of Hank's Balanced Salt Solution (HBSS) containing 20 mM HEPES, 0.05% BSA and 2.5 mM probenecid was added to each well followed by 25 μL of diluted dye using a Multidrop dispenser. The plates were then incubated for 1 hour at 37° C.
During the incubation, test compound plates were prepared by adding 90 μL of HBSS/20 mM HEPES/0.005% BSA buffer to the 2 μL of serial diluted compounds. To prepare serial diluted compounds, 20 mM stocks of compounds were dissolved in 100% DMSO. The compound dilution plate was set up as follows: well #1 received 5 μL of compound plus 10 μL of DMSO. Wells 2-10 received 10 μL of DMSO. 5 μL was mixed and transferred from well #1 into well #2. 1:3 serial dilutions were continued out 10 steps. 2 μl of diluted compound was transferred into duplicate wells of a 384 well “assay plate” and then 90 μL of buffer was added.
After incubation, both the cell and “assay plate” plates were brought to the fluorometric imaging plate reader (FLIPR®) and 20 μL of the diluted compounds were transferred to the cell plates by the FLIPR®. Plates were then incubated for 1 hour at room temperature. After the 1 hour incubation, plates were returned to the FLIPR® and 20 μL of 4.5× concentrated ligand was added to the cell plates. During the assay, fluorescence readings were taken simultaneously from all 384 wells of the cell plate every 1.5 seconds. Five readings were taken to establish a stable baseline, then 20 μL of sample was rapidly (30 μL/sec) and simultaneously added to each well of the cell plate. The fluorescence was continuously monitored before, during and after sample addition for a total elapsed time of 100 seconds. Responses (increase in peak fluorescence) in each well following agonist addition were determined. The initial fluorescence reading from each well, prior to ligand stimulation, was used as a zero baseline value for the data from that well. The responses were expressed as % inhibition of the buffer control. […]

Row | IC50 | Compound
1 | 0.188 µM | O=C(O)COc1cccc2c1CCCCC2NS(=O)(=O)c1cc(C(F)(F)F)cc(C(F)(F)F)c1 (single isomer, unassigned) [Example 46, [5-(3,5-Bis-trifluoromethyl-benzenesulfonylamino)-6,7,8,9-tetrahydro-5H-benzocyclohepten-1-yloxy]-acetic acid]
2 | 0.114 µM | O=C(O)COc1cccc2c1CCCCC2NS(=O)(=O)c1cc(C(F)(F)F)cc(C(F)(F)F)c1 (centres unmarked) [Example 1, [5-(3,5-Bis-trifluoromethyl-benzenesulfonylamino)-6,7,8,9-tetrahydro-5H-benzocyclohepten-1-yloxy]-acetic acid]
